Experimental data taken from US9132118B2, “Taxane analogs for the treatment of brain cancer” (Tapestry Pharmaceuticals, Inc., priority 2007, dated 2015).
“Also recorded” adds a separate entry of the source.

Assays:
[1] = Phase 1 Study S-(1)-02, i.v. every 21 days, safety and pharmacokinetics; assay type: in vivo, patients; details: for AUC0-24 / Cl / Vss / t1/2: Study S-(1)-02 (15:85 Cremophor EL-P/ethanol), i.v., first dose; for half-life: human, plasma, intravenous
Experimental: treatment cycles are repeated every 28 days in patients who remain eligible for continued treatment. Study S-(1)-O1 is currently being conducted in the United States. […] Study S-(I)-02 is currently being conducted in the United States and in Israel.
(§1) Plasma pharmacokinetics of S-(1) were assessed following the first dose of S-(1) in both studies. Plasma samples were analyzed for S-(1) using a validated LC/MS-MS method.
Treatment cohorts were expanded to 6 pts in the face of dose-limiting toxicity (DLT); pts could remain on study until the development of progressive disease or an intolerable adverse event. DLT was defined as Gr 4 heme toxicity lasting 7 days; febrile neutropenia, Gr 3 thrombocytopenia with bleeding, Gr 3 elevation of transaminases lasting 7 days or any other Gr ¾ toxicity other than nausea or vomiting.

[2] = Phase 1 Study S-(1)-01, i.v. weekly x3 in a 28-day cycle, safety and pharmacokinetics; assay type: in vivo, patients; details: for AUC0-24 / Cl / Vss / t1/2: Study S-(1)-01 (50:50 Cremophor EL-P/ethanol), i.v., first dose
Experimental: Both trials have enrolled patients with advanced solid tumors, non-Hodgkin's lymphoma or Hodgkin's lymphoma that have recurred or progressed following at least standard therapy; patients with malignancies for which there is no standard therapy; patients who are not candidates for standard therapy; or patients who have chosen not to pursue standard therapy.
as §1
Treatment cohorts consisted of 3 pts and were expanded to 6 pts in the face of dose-limiting toxicity (DLT); pts could remain on study until the development of progressive disease or an intolerable adverse event. DLT was defined as Gr 4 heme toxicity lasting 7 days; febrile neutropenia, Gr 3 thrombocytopenia with bleeding, Gr 3 elevation of transaminases lasting 7 days or any other Gr 3/4 toxicity other than nausea or vomiting. Results: 25 pts (M:F 16:9, median age 60, range 24-86) were enrolled in 7 dose levels ranging from 7-185 mg/m^2. Pts' cancers included colorectal (6 pts); NSCLC (2); prostate (2); squamous cell carcinoma (2) and 1 pt each with cervical, breast, ovarian, gastric, pancreatic, bladder endometrial, NSCLC, SCLC, glioblastoma, melanoma, renal cell and hepatocellular carcinoma.

[3] = Efficacy of oral or iv S-(1) in mouse xenografts; assay type: in vivo, nude mice; details: mouse, in vivo, po; nude mice; from efficacy studies and MTD studies; read-out: apparent oral bioavailability
Experimental: (§2) Summary of Experimental Protocol: Human neuroblastoma tumor cells were implanted via subcutaneous injection of 1-10×10^6 cells in nude mice. Tumors were allowed to grow to 200 mg+/−50 mg in size. Drug dosing was initiated, and tumor volume and body weight were recorded twice weekly.
(§3) The mean value for % body weight change and % tumor volume increase for each experimental group was plotted including error bars for the standard error of the mean.
(§4) Other metrics for assessing antitumor effects include: % T/C values as calculated by the following formula:
(§5) [formula] Log Kill=(T−C)/3.32×(Td)

[4] = test system: human tumor xenografts; experiment: Efficacy of oral or iv S-(1) in mouse xenografts; assay type: in vivo, nude mice; details: human tumor xenografts in nude mice
Experimental: as §2, §3, §4, §5

[5] = S-(1) Injection mouse PK parameters, IV and oral; assay type: in vivo
[6] = weekly study summary, dose of 127.5 mg/m^2

C=C[C@H]1O[C@H]2CC3OC[C@@]3(OC(C)=O)[C@H]3[C@H](OC(=O)c4ccccc4)[C@]4(C(C)(C)O)C[C@H](OC(=O)[C@H](O)[C@H](CC(C)C)NC(=O)OC(C)(C)C)C(C)=C4[C@H](OC(C)=O)[C@H](O1)[C@]23C (stereo partly drawn) [S-(1)]
AUC0-24 ([1]; 56 mg/m^2, plasma): 2530 ± 847 ng·h/mL
Cl ([1]; 56 mg/m^2, plasma): 18.9 ± 9.53 L/hr/m^2
Vss ([1]; 56 mg/m^2, plasma): 232 ± 93.6 L/m^2
t1/2 ([1]; 56 mg/m^2, plasma): 8.96 ± 7.09 h
AUC0-24 ([1]; 84 mg/m^2, plasma): 3710 ng·h/mL
Cl ([1]; 84 mg/m^2, plasma): 15.4 L/hr/m^2
Vss ([1]; 84 mg/m^2, plasma): 300 L/m^2
AUC0-24 ([1]; 126 mg/m^2, plasma): 6110 ± 3030 ng·h/mL
Cl ([1]; 126 mg/m^2, plasma): 22.1 ± 11.2 L/hr/m^2
Vss ([1]; 126 mg/m^2, plasma): 166 ± 105 L/m^2
t1/2 ([1]; 126 mg/m^2, plasma): 6.27 ± 3.64 h
AUC0-24 ([1]; 185 mg/m^2, plasma): 7260 ± 2620 ng·h/mL
Cl ([1]; 185 mg/m^2, plasma): 24.7 ± 12.2 L/hr/m^2
Vss ([1]; 185 mg/m^2, plasma): 215 ± 116 L/m^2
t1/2 ([1]; 185 mg/m^2, plasma): 3.43 ± 7.31 h
dose limiting toxicity ([1]; Study S-(1)-02, i.v. every 21 days, 185 mg/m^2 (2 patients)): Grade 3 sensory neuropathy; also recorded: Gr 3 peripheral sensory neuropathy
dose that can be safely administered ([1]; every 21 days in heavily pre-treated patients): 160 mg/m^2
patients who experienced Gr 4 neutropenia ([1]; every 21 days, 14 patients): 1 pt
drug related adverse events ([1]; every 21 days, 56-185 mg/m^2, 14 patients): mucositis, vomiting, diarrhea, neutropenia, thrombocytopenia, myalgias and peripheral neuropathy
dose limiting toxicity ([1]; every 21 days, dose of 160 mg/m^2): no DLT was observed
dose dependence of AUC (in words) ([1]; every-21-days study): generally dose linear
clearance ([1]; every-21-days study summary, dose of 126 mg/m^2): 24.7±12.2 L/hr/m^2
tumor response ([1]; every-21-days study, patients with advanced cancer): 1 pt with pancreatic cancer had a confirmed response
half-life ([1]; 126 mg/m2, every-21-days study summary, dose of 126 mg/m^2, read-out: t1/2 (converted)): 10.6 h
half-life ([1]; Study S-(1)-02, after first dose, read-out: Plasma t1/2, range over dose groups): 3.43 to 8.96 h
AUC0-24 ([2]; 14 mg/m^2, plasma): 457 ± 297 ng·h/mL
Cl ([2]; 14 mg/m^2, plasma): 35.5 ± 29.7 L/hr/m^2
Vss ([2]; 14 mg/m^2, plasma): 23.2 ± 74.5 L/m^2
t1/2 ([2]; 14 mg/m^2, plasma): 8.4 ± 11.5 h
AUC0-24 ([2]; 28 mg/m^2, plasma): 682 ± 322 ng·h/mL
Cl ([2]; 28 mg/m^2, plasma): 43.5 ± 14.5 L/hr/m^2
Vss ([2]; 28 mg/m^2, plasma): 309 ± 161 L/m^2
t1/2 ([2]; 28 mg/m^2, plasma): 3.45 ± 1.09 h
AUC0-24 ([2]; 56 mg/m^2, plasma): 2070 ± 888 ng·h/mL
Cl ([2]; 56 mg/m^2, plasma): 28.6 ± 13.2 L/hr/m^2
Vss ([2]; 56 mg/m^2, plasma): 216 ± 70 L/m^2
t1/2 ([2]; 56 mg/m^2, plasma): 5.66 ± 3.63 h
AUC0-24 ([2]; 85 mg/m^2, plasma): 5970 ± 3900 ng·h/mL
Cl ([2]; 85 mg/m^2, plasma): 16.6 ± 9.26 L/hr/m^2
Vss ([2]; 85 mg/m^2, plasma): 142 ± 75.6 L/m^2
t1/2 ([2]; 85 mg/m^2, plasma): 5.52 ± 5.26 h
AUC0-24 ([2]; 127.5 mg/m^2, plasma): 4460 ± 2140 ng·h/mL
Cl ([2]; 127.5 mg/m^2, plasma): 30.2 ± 11.9 L/hr/m^2
Vss ([2]; 127.5 mg/m^2, plasma): 239 ± 116 L/m^2
t1/2 ([2]; 127.5 mg/m^2, plasma): 6.59 ± 2.60 h
dose limiting toxicity ([2]; Study S-(1)-01, i.v. weekly ×3, observed in one patient at 185 mg/m^2): Grade 3 sensory neuropathy; also recorded: Grade 3 peripheral neuropathy
half-life ([2]; both sexes, human, plasma, intravenous, Study S-(1)-01, after first dose, read-out: Plasma t1/2, range over dose groups): 3.45 to 8.4 h
dose dependence of AUC (in words) ([2]; weekly study): generally dose linear
clearance [2, 6]: 30.2+11.9 L/hr/m^2
tm [2, 6]: 8.6+1.3 hrs
anti-neoplastic activity ([2]; weekly study, patients with advanced neoplasms): Anti-neoplastic activity was seen in a patient with pancreatic cancer
drug related adverse events ([2]; weekly ×3 then 1 week rest, 7-185 mg/m^2, 25 pts): nausea, vomiting, diarrhea, fatigue, anorexia, rash, anemia and peripheral neuropathy
dose that can be safely administered ([2]; weekly×3 in heavily pre-treated patients): up to 185 mg/m^2
bioavailability [3]: 70 to 80%
efficacy / antitumor activity in mouse xenografts (in words) [4]: demonstrated antitumor activity against multiple human tumor xenografts in nude mice, including xenografts that expressed mdr-1 and that were resistant to other taxanes; also recorded: suppressed the growth of multiple human tumor xenografts in nude mice, including xenografts that expressed mdr-1 and that were resistant to other taxanes; also recorded: shows efficacy
AUCinf ([5]; IV 10/mg/kg): 7.738 µM·h
AUClast ([5]; IV 10/mg/kg): 6.298 µM·h
CL ([5]; IV 10/mg/kg): 24.8 mL/min/kg
Vdss ([5]; IV 10/mg/kg): 13.35 L/kg
t½ ([5]; IV 10/mg/kg): 6.1 h
AUCinf ([5]; Oral 10 mg/kg): 3.609 µM·h
AUClast ([5]; Oral 10 mg/kg): 3.434 µM·h
Cmax ([5]; Oral 10 mg/kg): 460 nM
t½ ([5]; Oral 10 mg/kg): 5.1 h
F ([5]; Oral 10 mg/kg vs IV): 47%
Tmax ([5]; in vivo, Oral 10 mg/kg): 6 h
